Article PMC12461331, “Screening of Medicines for Malaria Venture Open Boxes Identifies Potent SARS-CoV‑2 Papain-like Protease (PL^pro) Inhibitors” (ACS Omega, 2025)
Values joined by “and” are separate entries in the source; they are usually repeats but may differ in a detail not shown here. Equal values may be shown once. Read-outs that look alike come from different tables or passages of the source. Square brackets hold non-standard residues; d marks the D form. Peptide text beside a SMILES is read from it.

Legend:
[1] = molecular target: SARS-CoV-2 PL^pro (Severe acute respiratory syndrome coronavirus 2, UniProt P0DTD1); assay type: biochemical; conditions: single dose 10 μM end point screen
[2] = system: HeLa-ACE2 cells
[3] = in vitro; conditions: CD1, mouse, microsomes, pH 7.4
[4] = system: HeLa-ACE2 cells; assay: cells; conditions: Homo sapiens
[5] = physchem; conditions: 25 °C, kinetic from dmso stock
[6] = molecular target: PL^pro (Severe acute respiratory syndrome coronavirus 2, UniProt P0DTD1); conditions: 20 μM compound, 5 μM enzyme, average of triplicates with SD
[7] = in vitro; conditions: PAMPA
[8] = physchem; conditions: pH 7.4
[9] = Mouse liver microsomal stability assay; conditions: CD1, mouse, liver microsomes, pH 7.4
[10] = in vitro; conditions: human, microsomes, pH 7.4
[11] = system: SARS-CoV-2; assay: microbe, parasite or virus in culture
[12] = system: uninfected HeLa-ACE2 cells; conditions: Hela-ACE2 Uninfected Cell Toxicity
[13] = Human liver microsomal stability assay; conditions: human, liver microsomes, pH 7.4
[14] = system: SARS-CoV-2
[15] = in vitro; conditions: human, uninfected HeLa-ACE2 cells
[16] = Plasma stability; conditions: female, BALB/c, mouse, plasma, pH 7.4
[17] = female, BALB/c, mouse, 1 h, 2 μM, pH 7.4
[18] = human, microsomes
[19] = Hela-ACE2 CoV-2 Total Cell count, curve fit
[20] = Hela-ACE2 % Positive SARS-CoV-2, curve fit

C[C@@H](N)C(=O)N[C@H](CCCCN)C(=O)N[C@H](CCCNC(=N)N)C(=O)N[C@H](Cc1c[nH]cn1)C(=O)N[C@H](Cc1c[nH]cn1)C(=O)NCC(=O)N[C@H](Cc1ccc(O)cc1)C(=O)N[C@H](CCCCN)C(=O)N[C@H](CCCNC(=N)N)C(=O)N[C@H](CCCCN)C(=O)N[C@H](Cc1ccccc1)C(=O)N[C@H](Cc1c[nH]cn1)C(N)=O [P-113D] (H-[dA][dK][dR][dH][dH]G[dY][dK][dR][dK][dF][dH]-NH2)
inhibition of SARS-CoV-2 PL^pro [1]: ≥ 80%

CC(c1cccc2ccccc12)N1CCC(C(=O)NCc2ccc(Cl)cc2)CC1 (stereo not shown) [Compound 13]
Data Mode ([2]; Hela-ACE2 CoV-2 Total Cell count): increasing (weakly active) | S0 [2, 19]: -15.6144 | Sinf [2, 19]: 100 | nHill [2, 19]: 0.852 | HeLa-ACE2 Total Cell Efficacy (Sinf, note + or -) ([2]; infected HeLa-ACE2 total cell count): 0.852 | microsomal CLint at 0.5 μM [3]: 302 µL/min/mg | EC50 ([4]; HeLa-ACE2, read-out: HeLa-ACE2 Total cells EC50): > 9.61 µM | AC50 ([4]; HeLa-ACE2, read-out: Log AC50 (converted)): > 9.61 µM | EC50 ([4]; HeLa-ACE2, read-out: qAC50): > 9.61 µM | solubility kinetic at 24 h ([5]; pH 2, aqueous buffer): > 24.4 µg/mL | solubility kinetic at 24 h ([5]; pH 7.4, aqueous buffer): > 13.4 µg/mL | ΔT m [6]: 6.15 °C and 6.1 ± 0.4 °C | Papp at 5 h, 10 μM [7]: 0.3 ×10⁻⁶ cm/s | chromatographic logD [8]: 4.7 | half-life at 0.5 μM [9]: 0.153 h | microsomal CLint at 0.5 μM [10]: 184 µL/min/mg | EC50 ([11]; Severe acute respiratory syndrome coronavirus 2, HeLa-ACE2, read-out: CoV-2 EC50): 3.71 µM | AC50 ([11]; Severe acute respiratory syndrome coronavirus 2, HeLa-ACE2, read-out: Log AC50 (converted)): 3.71 µM | EC50 ([11]; Severe acute respiratory syndrome coronavirus 2, HeLa-ACE2, read-out: SARS-CoV-2 EC50): 3.7 ± 0.5 µM | inhibition at 9.61 µM ([11]; Severe acute respiratory syndrome coronavirus 2, HeLa-ACE2, read-out: inhibition in the highest concentration tested): > 50% | EC50 ([11]; Severe acute respiratory syndrome coronavirus 2, HeLa-ACE2, read-out: qAC50): 3.71 µM | Data Mode [12]: decreasing | S0 ([12]; curve fit): -6.029 | Sinf ([12]; curve fit): -100 | nHill ([12]; curve fit): 4 | qAC50 ([12]; relation in column qAC50 Mode, unit not given): 1.885e-5 | half-life at 0.5 μM [13]: 0.251 h | CoV2 Efficacy (delta S0:Sinf) ([14]; HeLa-ACE2): 104.884 | SI (average CC50/average EC50) ([14]; HeLa-ACE2): 5 | Data Mode ([14]; Hela-ACE2 % Positive SARS-CoV-2): decreasing | S0 [14, 20]: 4.884 | Sinf [14, 20]: -100 | nHill [14, 20]: 3.857 | SI (average CC50/average EC50) ([14]; supplement summary): 5.083 | Tags (tier) ([14]; tier of the screening summary): 3 (EC50< 10 µM, Efficacy >40%, SI > 5 or CC50 not reached at maximum concentration tested) | AC50 at 24 h [15]: 18.9 µM | CC50 at 24 h ([15]; uninfected HeLa-ACE2 CC50, supplement summary): 18.9 µM | CC50 at 24 h ([15]; uninfected HeLa-ACE2 CC50, uninfected HeLa-ACE2 cells, average of triplicates): 18.8 ± 0.2 µM | half-life at 2 μM [16]: 6.08 h | plasma stability remaining 60 min [17]: 46.83%

COc1ccc(CNC(=O)C2CCN([C@@H](C)c3ccccc3)CC2)cc1 [Compound 2]
microsomal CLint at 0.5 μM [3]: 300 µL/min/mg | solubility kinetic at 24 h ([5]; pH 2, aqueous buffer): > 22.1 µg/mL | solubility kinetic at 24 h ([5]; pH 7.4, aqueous buffer): > 22 µg/mL | ΔT m [6]: 1.5 °C and 1.50 ± 0.05 °C | Papp at 5 h, 10 μM [7]: 1.47 ×10⁻⁶ cm/s | chromatographic logD [8]: 3 | half-life at 0.5 μM [9]: 0.154 h | microsomal CLint at 0.5 μM [10]: 24.4 µL/min/mg | half-life at 0.5 μM [13]: 1.89 h | metabolic stability (in words) [18]: improved stability | plasma stability remaining 60 min [17]: 91.46%

CC[C@@H](C)N1CCC(C(=O)NCc2ccc(OC)cc2)CC1 (racemic) [Compound 14]
microsomal CLint at 0.5 μM [3]: 65.6 µL/min/mg | solubility kinetic at 24 h ([5]; pH 2, aqueous buffer): > 18.4 µg/mL | solubility kinetic at 24 h ([5]; pH 7.4, aqueous buffer): > 18.3 µg/mL | ΔT m [6]: 1.20 ± 0.06 °C | Papp at 5 h, 10 μM [7]: 0.77 ×10⁻⁶ cm/s | chromatographic logD [8]: 1.61 | half-life at 0.5 μM [9]: 0.705 h | microsomal CLint at 0.5 μM [10]: < 12 µL/min/mg | half-life at 0.5 μM [13]: 5.02 h | metabolic stability (in words) [18]: improved stability | half-life at 2 μM [16]: 3.73 h | plasma stability remaining 60 min [17]: 30.29%
